Where “and” joins values, the source holds several entries; their conditions need not be identical. Identical values can stand only once. Marks after values point to notes of the source that are not given here.
How the values were obtained:
[1] = system: moderate chronic (35 days post-injury) spinal cord crush; test: Long standing moderate spinal cord crush (35 days), OFT score; assay type: in vivo, rat
Description: A tabular representation of the results from both chronic spinal cord injury studies (drugs first administered 25 days after a mild spinal cord crush and 35 days after a moderate spinal cord crush) are shown in Table 5.
One hundred fifty adult female Wistar rats, 250–300 g weight, obtained from Charles River were housed in the McMaster University Health Sciences Centre (HSC) Central Animal Facilities (CAF) for at least one week. During that time they were exposed to the performance tests described below, to ensure they were familiar with them. Rats were handled daily for 2 weeks prior to surgery.
Rats were anesthetized using isoflurane (3–5%): O2 (1 L/min) in an appropriately equipped surgical suite in the CAF. Temgesic (0.03 mg/kg body weight, subcutaneously (SQ)) was administered prior to surgery for pain relief. Spinal cords were crushed (compressed) with a 3.5 mm wide modified coverslip forceps (Blight 1991, procedure revised by Rathbone laboratory). The forceps were closed to 1.4 mm for 15 sec, which produced injury level equivalent to the mid-level (moderate) outcome on the Gruner scale (1996). The compression injury was otherwise performed according to the procedure described by Blight (1991).
Changes in locomotor behaviour and segmental reflexes were assessed up to 5 weeks post injury. Animals were tested in an open field walking task, hind limb placement and foot orientation. The animals were evaluated on days 2, 7, 14, 21, 28 and 35 after surgery. By 35 days after surgery, almost no further spontaneous recovery occurs. Therefore treatment began on day 35.
HP184 was dissolved in sterilized (autoclaved) deionized reverse-osmosis water acidified with glacial acetic acid (0.1 ml acid per 10 ml of water). 4-AP (Sigma, molecular weight 94.12; Jankowska E. et al., 1982; Gruner et al., 1999) was dissolved in physiological saline (0.6 mg/kg b.w.) and was administered by i.p. injection. One group of rats (vehicle control-1) received by oral gavage vehicle. Behaviourial testing was done immediately prior to receiving the gavage and at 3 hours thereafter. Then, the rats were scarified on day 35. All the other rats received either HP184 by oral gavage (0.3, 1, or 3 mg/kg bw depending on the group) or 4-AP (0.6 mg/kg, i.p.) or vehicle (vehicle control-2) once a day on the 35 to 42 days after surgery. On these days behaviourial tests were done immediately prior to receiving the gavage at 3 and 24 hours thereafter. Then, the rats were perfused on day 43 after the last behaviourial testing.
Statistical analyses were performed on a Macintosh computer using GB-Stat ppc 6.5.2. The behavioral scores were analyzed by the Kruskal-Wallis nonparametric analysis of variance (ANOVA). Post hoc comparisons were made using Mann-Whitney U tests.

SCI and MS patients = settings: cited from earlier work
[2] = system: demyelinated area at the moderate compression injury site; test: Histological study of spinal cords, demyelinated area (luxol fast blue); assay type: in vivo, rat; settings: HP184 0.3, 1 or 3 mg/kg po or 4-AP 0.6 mg/kg ip, days 35–42 after moderate crush
Procedure: A study to test whether the treatment with HP184 affected the amount of myelin in rats with moderate long term spinal cord crush injury when administered long after spinal cord injury.
The spinal cords from rats described above in the assessment were used for this study.
(50–60 mg/kg body weight, i.p.) and perfused transcardically—first with 100 mL 0.05M phosphate buffed saline (PBS) containing 0.1% heparin, followed by 300–500 mL of 4% paraformaldehyde (PFA). Segments T9 to L1 of the spinal cords were taken out, then cryo-protected in 30% sucrose solution and frozen at −70° C. in 10.24% polyvinyl alcohol and 4.26% polyethylene glycol.
A segment of each cord including the lesion site plus 10 mm rostral and caudal to the lesion site was embedded in Tissue Tek medium. Serial sections were cut longitudinally at 20 μm intervals on a cryostat. Every third section was stained with luxol fast blue for myelin. The evaluation was performed by observers blinded as to treatment, on coded slides. Sections were examined under a light microscope for the extent of demyelination (the area without luxol fast blue staining).
For determinations of the maximal demyelinated area of the cord, the whole section was digitized on photographs using a Zeiss microscope. The extent of demyelination was measured at the lesion center using a computerized Bioquant BQ-TCW98 image analysis progrem by an investigator who was blind to treatment group.
Statistical analysis was performed on a Macintosh computer using GB-Stat ppc 6.5.2. The histological results were analyzed by the Kruskal-Wallis nonparametric analysis of variance (ANOVA). Post hoc comparisons were made using Mann-Whitney U tests.

[3] = system: long-standing (25 days) spinal cord injury of minor intensity; test: Chronic crush experiment, 25-day old mild compression injury (1.6 mm), OFT score; assay type: in vivo, rat
Description: Normal spinal cord diameter is approximately 2.5 mm. This compression represents a moderate injury characterized by initial open field walking scores of 1.5–2.5 in the Open Field Walking Scale. […] The spinal cords of female rats were exposed to laminectomy or crush to a diameter of 1.6 mm. This represented a minor injury, and was designed to result in OFT scores of 4.0 after 25 days of no treatment. […] In this experiment, OFT scores were slightly higher (4.3–4.5), leaving only a small window for improvement. […] Consistent improvement was also observed after once a day ip 0.6 mg/kg 4-AP as well. The statistical differences were based upon the changes for each individual rat (each rat was its own control) using Mann-Whitney U-test. All the behavioral tests on day1, day2 and day3 were performed at 3 hours after gavage. There was no drug given on day3 (first day started to give drug was day 0).

[4] = system: RuR-induced flaccid paralysis; test: Antagonism of ruthenium red (RuR)-induced flaccid paralysis, flagpole test; assay type: in vivo, mouse; settings: for antagonism of the flaccid paralysis induced by ip RuR (conclusion): doses of Table 3
Procedure: Method and Results: Groups of 4–5 mice (CD-1; Charles River; 25–35 grams) were separately but simultaneously injected ip with ruthenium red and vehicle (1% glacial acetic acid), ruthenium red and 4-AP, or ruthenium red and HP 184. The compound known as “8183” was also tested in this paradigm. Starting at 15 minutes after injections, mice were placed near a “flagpole” apparatus and their ability to support their own body weight (ie, to hold on to the flagpole and not fall) was recorded. Results were recorded as the number of mice that could support their own body weight versus the total number of mice tested. All experiments were performed between 2PM and 4:30PM.

[5] = system: mechanical hyperalgesia after nerve ligation; test: Neuropathic pain model, spinal nerve constriction, von Frey paw withdrawal threshold; assay type: in vivo, rat; settings: 90 mg/kg sc, tested 45 minutes after dosing
Procedure: Adult male Sprague-Dawley rats received unilateral constriction of the L6 nerve to produce chronic nerve injury. Following recovery from surgery (3–7 days post operative) animals were tested for paw withdrawal threshold to mechanical stimuli applied to the affected paw. This was determined by the application of calibrated von Frey monofilaments to the plantar surface of each hindpaw. Only animals with a 50% decrease in withdrawal threshold in the ligated paw were employed in the study, and were randomly assigned to one of 6 groups: three groups receiving one of three doses of HP 184 (0.3, 3 and 20 mg/kg, po), a fourth group receiving a single dose of another compound referred to MDL (10 mg/kg, ip), a fifth group receiving gabapentin (90 mg/kg, sc), and a sixth group receiving vehicle only. Behavioral testing occurred 45 minutes following the gabapentin (90 mg/kg, sc), and 3 hours following the HP 184, MDL, and vehicle. A difference score between the ligated and non-ligated paw withdrawal thresholds is calculated for each animal, and these differences were subjected to ANOVA with group as the main factor. […] Analysis was between/within repeated measures ANOVA. […]

[6] = 0.3 mg/kg ip with RuR 30 mg/kg ip, 15 min
[7] = 0.3 mg/kg ip with RuR 30 mg/kg ip, 30 min
[8] = 0.3 mg/kg ip with RuR 30 mg/kg ip, 45 min
[9] = 0.6 mg/kg ip with RuR 30 mg/kg ip, 15 min
[10] = 0.6 mg/kg ip with RuR 30 mg/kg ip, 30 min
[11] = 0.6 mg/kg ip with RuR 30 mg/kg ip, 45 min
[12] = 10 mg/kg ip with RuR 30 mg/kg ip, 15 min
[13] = 10 mg/kg ip with RuR 30 mg/kg ip, 30 min
[14] = 10 mg/kg ip with RuR 30 mg/kg ip, 45 min
[15] = 30 mg/kg ip with RuR 30 mg/kg ip, 15 min
[16] = 30 mg/kg ip with RuR 30 mg/kg ip, 30 min
[17] = 30 mg/kg ip with RuR 30 mg/kg ip, 45 min
[18] = 100 mg/kg ip with RuR 30 mg/kg ip, 15 min
[19] = 100 mg/kg ip with RuR 30 mg/kg ip, 30 min
[20] = 100 mg/kg ip with RuR 30 mg/kg ip, 45 min

Nc1ccncc1 [4-AP, 4-amino pyridine]
motor recovery, Open Field Walking Test ([1]; 0.6 mg/kg ip, thirty-five days after moderate injury): similarly effective | % possible improvement, moderate ([1]; 0.6 mpk ip): 22.1%* | Delta of OFT score, Day 35 to Day 39 (moderate) ([1]; 0.6 mpk ip): .22 | OFT score Day 39 (moderate) 3 hrs after last dose ([1]; 0.6 mpk ip daily): 4.17 ± .047 | open field locomotor ability (mean OFT scores) vs vehicle, FIGS. 6a and 6b ([1]; HP184 0.3, 1 or 3 mg/kg po or 4-AP 0.6 mg/kg ip once a day, days 35–42, treatment effect p<0.01): significantly different from that of control animals receiving vehicle | OFT score Day 35 (moderate) prior ([1]; group 0.6 mpk ip, baseline before dosing): 3.95 ± .084 | doses at which restlessness, confusion and generalized tonic-clonic seizures have been reported (SCI and MS patients; Ball et al, 1979, Bever et al, 1994): higher than 0.8 mg/kg | serum level necessary for significant improvement (SCI and MS patients; MS patients, oral administration (Van Diemen et al, 1993)): 33 to 75 ng/mL | serum level at which a grand mal seizure was reported (SCI and MS patients; human study (Bever et al, 1994)): 104 ng/mL | myelinated / demyelinated area at the crush center, FIG. 7 [2]: significantly greater myelinated area than that of saline controls | OFT improvement compared to vehicle control (Mann-Whitney U-test) ([3]; 0.6 mg/kg ip once a day, p=0.0027): significant improvement at 90 min to 3 h and 12 h to day 2 | OFT score 3 hours after last dose (Day 28, mild) ([3]; 0.6 mg/kg ip once a day, three consecutive daily doses): 4.53 ± 0.02 and 4.53 ± .023 | % possible improvement (highest score = 5), mild ([3]; 0.6 mpk ip): 17.5%* | Delta of OFT score, Day 25 to Day 28 (mild) ([3]; 0.6 mpk ip): .10 | OFT score prior to dose (Day 25, mild) ([3]; group 0.6 mg/kg ip, baseline before dosing): 4.43 ± 0.03 and 4.43 ± .030 | % of mice that could support their own body weight [4, 6]: (88%) | number of mice that could support their own body weight versus total tested [4, 6]: 22 out of 25 | % of mice that could support their own body weight [4, 7]: (52%) | number of mice that could support their own body weight versus total tested [4, 7]: 13 out of 25 | % of mice that could support their own body weight [4, 8]: (48%) | number of mice that could support their own body weight versus total tested [4, 8]: 12 out of 25 | % of mice that could support their own body weight [4, 9]: (85.7%) | number of mice that could support their own body weight versus total tested [4, 9]: 12 out of 14 | % of mice that could support their own body weight [4, 10]: (57.1) | number of mice that could support their own body weight versus total tested [4, 10]: 8 out of 14 | % of mice that could support their own body weight [4, 11]: (57.1%) | number of mice that could support their own body weight versus total tested [4, 11]: 8 out of 14 | antagonism of the flaccid paralysis induced by ip RuR (conclusion) [4]: can antagonize the flaccid paralysis

Nc1nc2ccc(OC(F)(F)F)cc2s1 [RIL, riluzole]
% of mice that could support their own body weight [4, 12]: (60%) | number of mice that could support their own body weight versus total tested [4, 12]: 9 out of 15 | % of mice that could support their own body weight [4, 13]: (26.7%) | number of mice that could support their own body weight versus total tested [4, 13]: 4 out of 15 | % of mice that could support their own body weight [4, 14]: (26.7%) | number of mice that could support their own body weight versus total tested [4, 14]: 4 out of 15 | antagonism of the flaccid paralysis induced by ip RuR (conclusion) [4]: lack of effect

Cc1cn(Nc2ccncc2F)c2ccccc12 [compound 8183]
% of mice that could support their own body weight [4, 15]: (92.8%) | number of mice that could support their own body weight versus total tested [4, 15]: 13 out of 14 | % of mice that could support their own body weight [4, 16]: (92.8%) | number of mice that could support their own body weight versus total tested [4, 16]: 13 out of 14 | % of mice that could support their own body weight [4, 17]: (100%) | number of mice that could support their own body weight versus total tested [4, 17]: 14 out of 14

NCC1(CC(=O)O)CCCCC1 [gabapentin, reference compound]
mechanical hyperalgesia, difference of ligated minus normal paw withdrawal threshold, FIG. 10 [5]: clear reversal of hyperalgesia

diphenylhydaintoin [DPH]
% of mice that could support their own body weight [4, 15]: (26.7%) | number of mice that could support their own body weight versus total tested [4, 15]: 4 out of 15 | % of mice that could support their own body weight [4, 16]: (20%) | number of mice that could support their own body weight versus total tested [4, 16]: 3 out of 15 | % of mice that could support their own body weight [4, 17]: (26.7%) | number of mice that could support their own body weight versus total tested [4, 17]: 4 out of 15 | % of mice that could support their own body weight [4, 18]: (55%) | number of mice that could support their own body weight versus total tested [4, 18]: 11 out of 20 | % of mice that could support their own body weight [4, 19]: (50%) | number of mice that could support their own body weight versus total tested [4, 19]: 10 out of 20 | % of mice that could support their own body weight [4, 20]: (50%) | number of mice that could support their own body weight versus total tested [4, 20]: 10 out of 20 | antagonism of the flaccid paralysis induced by ip RuR (conclusion) [4]: lack of effect

From patent US7179821B2, “Method of treating of demyelinating diseases or conditions” (Aventis Pharmaceuticals Inc., priority 2001, dated 2007)
